In PMC12220853, “Natural aminosterols inhibit NMDA receptors with low nanomolar potency” (The Febs Journal, 2025) one finds IC50 data, which are given here for one molecule.

For the assay, the target named is T1, N-methyl-D-aspartate receptor (NMDAR), native in hippocampal neurons (Rattus norvegicus, UniProt P35439+Q00959+Q00960).
T1 construct: gene Grin1; native heteromeric receptor in primary rat hippocampal neurons; with GluN2A / GluN2B (native mixture, mostly GluN1/2A/2B)
The assay can be described thus: whole-cell patch clamp of NMDA-activated currents in primary rat hippocampal neurons ([…] NMDA, […] glycine). It counts as cell-based. (In general: The patch-clamp technique gives a direct electrical read-out from membranes.)

By IC50 is commonly meant the midpoint of a concentration-inhibition curve. The low end stands for inhibition by little substance, the high end for a need for much substance.

T1 sequence (Q00959 23-1464, other chains not shown): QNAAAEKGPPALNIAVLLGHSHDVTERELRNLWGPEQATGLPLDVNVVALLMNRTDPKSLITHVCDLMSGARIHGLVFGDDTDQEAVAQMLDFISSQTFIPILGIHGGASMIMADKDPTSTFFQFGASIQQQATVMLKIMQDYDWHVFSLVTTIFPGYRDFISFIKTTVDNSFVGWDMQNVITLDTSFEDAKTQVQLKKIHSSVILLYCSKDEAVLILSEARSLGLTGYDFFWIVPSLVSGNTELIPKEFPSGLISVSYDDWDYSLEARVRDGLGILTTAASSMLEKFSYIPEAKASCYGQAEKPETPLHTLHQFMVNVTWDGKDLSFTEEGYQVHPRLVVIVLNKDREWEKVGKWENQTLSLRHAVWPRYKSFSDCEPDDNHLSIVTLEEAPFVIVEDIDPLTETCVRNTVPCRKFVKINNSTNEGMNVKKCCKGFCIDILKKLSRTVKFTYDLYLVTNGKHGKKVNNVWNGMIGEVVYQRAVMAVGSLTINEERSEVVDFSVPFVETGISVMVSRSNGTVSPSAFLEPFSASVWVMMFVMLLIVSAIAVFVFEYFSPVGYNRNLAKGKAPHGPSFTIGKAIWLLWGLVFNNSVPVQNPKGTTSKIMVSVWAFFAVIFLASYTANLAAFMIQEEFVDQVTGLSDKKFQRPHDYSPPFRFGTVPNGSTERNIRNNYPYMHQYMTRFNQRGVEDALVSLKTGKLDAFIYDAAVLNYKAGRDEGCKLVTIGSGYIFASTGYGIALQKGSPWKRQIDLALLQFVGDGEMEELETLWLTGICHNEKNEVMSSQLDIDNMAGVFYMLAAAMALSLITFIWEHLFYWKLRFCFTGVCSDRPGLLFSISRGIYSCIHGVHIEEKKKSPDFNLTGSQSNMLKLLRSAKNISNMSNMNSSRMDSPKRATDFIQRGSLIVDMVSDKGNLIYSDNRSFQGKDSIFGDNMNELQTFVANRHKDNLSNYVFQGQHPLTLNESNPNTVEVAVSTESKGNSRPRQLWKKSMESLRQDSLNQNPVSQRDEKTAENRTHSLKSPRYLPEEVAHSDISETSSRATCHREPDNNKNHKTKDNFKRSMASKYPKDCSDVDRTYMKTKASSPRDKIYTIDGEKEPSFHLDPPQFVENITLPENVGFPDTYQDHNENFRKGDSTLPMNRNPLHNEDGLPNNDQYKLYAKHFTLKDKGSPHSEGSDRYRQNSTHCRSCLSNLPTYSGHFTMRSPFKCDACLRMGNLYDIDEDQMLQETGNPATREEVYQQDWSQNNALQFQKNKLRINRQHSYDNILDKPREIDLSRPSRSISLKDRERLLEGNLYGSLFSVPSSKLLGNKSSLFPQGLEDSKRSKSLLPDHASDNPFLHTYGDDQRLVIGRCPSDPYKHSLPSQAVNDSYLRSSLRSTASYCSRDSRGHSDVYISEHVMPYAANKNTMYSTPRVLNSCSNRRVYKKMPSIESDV
T1 sequence (Q00960 27-1482, other chains not shown): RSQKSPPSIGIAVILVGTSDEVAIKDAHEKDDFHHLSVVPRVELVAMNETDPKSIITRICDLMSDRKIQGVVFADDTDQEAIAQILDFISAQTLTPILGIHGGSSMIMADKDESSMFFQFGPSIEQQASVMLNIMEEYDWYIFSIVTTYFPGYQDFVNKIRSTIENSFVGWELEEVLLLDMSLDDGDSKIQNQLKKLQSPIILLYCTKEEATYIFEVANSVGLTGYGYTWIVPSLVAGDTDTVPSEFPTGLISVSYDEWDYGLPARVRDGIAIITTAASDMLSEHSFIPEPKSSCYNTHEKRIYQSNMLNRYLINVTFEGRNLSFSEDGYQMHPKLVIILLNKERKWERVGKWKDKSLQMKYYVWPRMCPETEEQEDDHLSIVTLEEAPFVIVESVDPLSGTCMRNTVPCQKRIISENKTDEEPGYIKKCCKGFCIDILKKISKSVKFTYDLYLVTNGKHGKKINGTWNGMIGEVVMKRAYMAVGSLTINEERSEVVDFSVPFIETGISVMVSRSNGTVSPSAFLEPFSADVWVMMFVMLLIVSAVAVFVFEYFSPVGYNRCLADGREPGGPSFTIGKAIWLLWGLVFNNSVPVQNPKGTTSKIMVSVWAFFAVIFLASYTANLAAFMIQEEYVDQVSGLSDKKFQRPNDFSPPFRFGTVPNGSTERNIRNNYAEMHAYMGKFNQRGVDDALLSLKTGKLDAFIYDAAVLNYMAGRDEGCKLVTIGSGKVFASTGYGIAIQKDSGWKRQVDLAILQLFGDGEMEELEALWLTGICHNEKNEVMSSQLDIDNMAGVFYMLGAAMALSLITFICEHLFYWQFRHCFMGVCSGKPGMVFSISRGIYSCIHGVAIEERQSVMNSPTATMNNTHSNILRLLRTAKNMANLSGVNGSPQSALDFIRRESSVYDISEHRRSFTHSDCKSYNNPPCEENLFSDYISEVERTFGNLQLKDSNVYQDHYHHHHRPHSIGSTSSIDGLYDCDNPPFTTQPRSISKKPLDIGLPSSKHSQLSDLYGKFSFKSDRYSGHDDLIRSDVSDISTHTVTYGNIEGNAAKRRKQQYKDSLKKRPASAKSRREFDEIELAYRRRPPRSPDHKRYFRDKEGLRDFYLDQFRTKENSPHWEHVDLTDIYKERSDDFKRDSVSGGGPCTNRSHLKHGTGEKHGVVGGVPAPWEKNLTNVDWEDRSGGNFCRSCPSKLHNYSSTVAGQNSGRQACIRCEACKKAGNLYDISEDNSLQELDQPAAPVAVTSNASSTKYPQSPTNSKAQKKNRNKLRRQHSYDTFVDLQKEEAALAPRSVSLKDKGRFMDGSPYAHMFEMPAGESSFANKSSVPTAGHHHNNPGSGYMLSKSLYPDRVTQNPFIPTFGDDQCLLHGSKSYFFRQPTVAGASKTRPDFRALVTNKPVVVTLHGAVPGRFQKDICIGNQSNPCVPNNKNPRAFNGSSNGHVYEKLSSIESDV

`CC(C)[C@@H](CC[C@@H](C)[C@H]1CC[C@H]2[C@@H]3[C@H](O)C[C@H]4C[C@@H](NCCCNCCCCNCCCN)CC[C@]4(C)[C@H]3CC[C@]12C)OS(=O)(=O)O` [TRO, trodusquemine] yielded an IC50 of 5.1 nM.
